The nature of the series: thermodynamic stability of polymorphic forms. It counts as physicochemical. The conditions noted are these: at room temperature.

The structures appear in SMILES notation.

With `CC(=O)N[C@H]1CC(=O)N(c2ccc(OCc3cccc(F)c3)cc2)C1` [Polymorph B, N-[(3S)-1-[4-[(3-fluorophenyl)methoxy]phenyl]-5-oxo-pyrrolidin-3-yl]acetamide], the “thermodynamic stability of the crystal form” value is “thermodynamically stable form”.

Source of the values: patent US20160237032A1, “PROCESS TO MANUFACTURE N-[(3S)-1-[4-[(3-FLUOROPHENYL)METHOXY]PHENYL]-5-OXO-PYRROLIDIN-3-YL]ACETAMIDE” (Hoffmann-La Roche Inc., priority 2013, published 2016).
